One assay relates to seminal vesicles. Description: Model 4: Antiandrogenic action on testosterone-stimulated growth of accessory sexual glands of castrated mice. The format is in vivo. The following applies: testosterone propionate 0.03 mg/mouse, test substance 2 × 30 mg/kg s.c., 7 days, CPA 30 mg/kg s.c., bicalutamide from preceding tests. The procedure: The function and the size of accessory sexual glands (prostate and seminal vesicles) depend on androgens. In castrated animals, a growth of these (organs is induced by androgen administration. The simultaneous treatment with antiandrogens inhibits this growth, depending on the dose.
To examine the test substances, the mice were castrated. The treatment with testosterone propionate (0.03 mg/mouse) and the test substances (formulated 2×daily 30 mg/kg s.c. in benzyl benzoate-castor oil (10:90)) was on the same day. The treatment was carried out over 7 days and at the end of the test, the weights of the seminal vesicles and prostates were determined. The inhibition, in percent, of the seminal vesicle growth was calculated relative to the control groups (with and without testosterone). As a reference substance, cyproterone acetate (30 mg/kg s.c.) was used.

In the next assay the target is T1, androgen receptor (Homo sapiens, UniProt P10275, T878A).
T1 construct: 2*10^6 LNCaP cells in 6 ml of RPMI 1640 without phenol red are grown; endogenous in cells; host or cells: LNCaP (human prostate cell line)
T1 sequence (P10275 1-920 T878A): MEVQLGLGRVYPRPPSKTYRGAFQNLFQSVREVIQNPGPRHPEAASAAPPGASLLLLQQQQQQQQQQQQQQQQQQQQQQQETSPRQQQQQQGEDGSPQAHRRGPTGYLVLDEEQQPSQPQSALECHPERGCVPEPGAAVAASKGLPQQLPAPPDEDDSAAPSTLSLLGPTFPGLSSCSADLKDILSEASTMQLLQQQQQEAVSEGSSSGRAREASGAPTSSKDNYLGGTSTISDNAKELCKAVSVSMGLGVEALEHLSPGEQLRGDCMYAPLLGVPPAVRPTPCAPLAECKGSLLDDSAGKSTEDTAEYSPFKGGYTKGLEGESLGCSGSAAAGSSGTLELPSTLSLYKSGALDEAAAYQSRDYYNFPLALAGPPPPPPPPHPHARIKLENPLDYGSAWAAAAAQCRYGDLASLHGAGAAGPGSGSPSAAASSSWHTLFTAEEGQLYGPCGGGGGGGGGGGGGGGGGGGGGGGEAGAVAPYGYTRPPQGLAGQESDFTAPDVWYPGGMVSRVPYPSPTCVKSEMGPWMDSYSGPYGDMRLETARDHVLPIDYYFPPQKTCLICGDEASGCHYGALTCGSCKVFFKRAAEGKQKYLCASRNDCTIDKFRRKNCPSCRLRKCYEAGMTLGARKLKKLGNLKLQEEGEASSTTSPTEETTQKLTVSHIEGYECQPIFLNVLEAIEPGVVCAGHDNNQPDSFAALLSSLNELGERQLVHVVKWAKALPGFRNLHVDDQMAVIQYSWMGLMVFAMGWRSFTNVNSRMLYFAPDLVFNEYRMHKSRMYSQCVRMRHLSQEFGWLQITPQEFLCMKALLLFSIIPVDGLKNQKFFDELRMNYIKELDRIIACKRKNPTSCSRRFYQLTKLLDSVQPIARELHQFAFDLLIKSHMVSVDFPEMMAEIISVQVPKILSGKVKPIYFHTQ
Description: cell-based. The following applies: for remaining activity at 10 µM / remaining activity at 1 µM: LNCaP; for remaining activity at 10 µM: read-out: AR Content [%] At 10 μM; for remaining activity at 1 µM: read-out: AR Content [%] At 1 μM; for AR Content [%]: R-1881 at 10 nM, percentage of DMSO control.

Another assay deals with LNCaP cells. Description: Model 2: Inhibition of the proliferation of LNCaP cells (crystal violet assay; antagonism with 0.1 nM R1881, agonism without). The following applies: for IC50: LNCaP proliferation in the presence of 0.1 nM R1881, 7-8 days, read-out: IC50 [10^−7 M]; for % Inhibition at 1 μM: LNCaP proliferation, 1 μM substance, compared to cell growth in the presence of 0.1 nM R1881. The format is cell-based, human.

Experimental findings from US6861432B2, “Piperazine derivatives that destabilize androgen receptors” (Schering Aktiengesellschaft, priority 2001, dated 2005) are described below.

SMILES strings stand for the structures.

With `CC(=O)O[C@]1(C(C)=O)CC[C@H]2[C@@H]3C=C(Cl)C4=CC(=O)[C@@H]5C[C@@H]5[C@]4(C)[C@H]3CC[C@@]21C` [CPA, 17-(acetyloxy)-6-chloro-1β,2β-dihydro-3′H-cyclopropa[1,2]pregna-1,4,6-triene-3,20-dione, reference compound], the “% Inhibition of the MSB Growth” value with seminal vesicles came out at 85%.
For `CC1=C(CCCCCCN2CCN(S(C)(=O)=O)CC2)C(=O)N(c2ccc(C#N)c(C(F)(F)F)c2)C1=O` [Example 296, 4-[2,5-Dihydro-3-methyl-4-[6-[4-(methylsulfonyl)piperazin-1-yl]hexyl]-2,5-dioxo-1H-pyrrol-1-yl]-2-(trifluoromethyl)benzonitrile], at androgen receptor (48 h), the remaining activity at 10 µM amounted to 48%.
Take `CC1=C(CCCCCCN2CCN(S(=O)(=O)c3ccc(C)cc3)CC2)C(=O)N(c2ccc(C#N)c(C(F)(F)F)c2)C1=O` [Example 297, 4-[2,5-Dihydro-3-methyl-4-[6-[4-[(4-methylphenyl)sulfonyl]piperazin-1-yl]hexyl]-2,5-dioxo-1H-pyrrol-1-yl]-2-(trifluoromethyl)benzonitrile]: on androgen receptor (48 h), the remaining activity at 10 µM was determined as 59%.
The same measure, in the same setting: in the case of `CC1=C(CCCCCCN2CCN(S(=O)(=O)c3ccc(C#N)cc3)CC2)C(=O)N(c2ccc(C#N)c(C(F)(F)F)c2)C1=O` [Example 300, 4-[3-[6-[4-[(4-Cyanophenyl)sulfonyl]piperazin-1-yl]hexyl]-2,5-dihydro-4-methyl-2,5-dioxo-1H-pyrrol-1-yl]-2-(trifluoromethyl)benzonitrile] it was 35%.
On the same count and under the same terms, the figure for `CC1=C(CCCCCCN2CCN(C(=O)NC(C)C)CC2)C(=O)N(c2ccc(C#N)c(C(F)(F)F)c2)C1=O` [Example 319, 4-[6-[1-[4-Cyano-3-(trifluoromethyl)phenyl]-2,5-dihydro-4-methyl-2,5-dioxo-1H-pyrrol-3-yl]hexyl]-N-(1-methylethyl)-piperazine-1-carboxamide] is 74%; for `CC1=C(CCCCCCN2CCN(C(=O)Nc3ccccc3C(F)(F)F)CC2)C(=O)N(c2ccc(C#N)c(C(F)(F)F)c2)C1=O` [Example 324, 4-[6-[1-[4-Cyano-3-(trifluoromethyl)phenyl]-2,5-dihydro-4-methyl-2,5-dioxo-1H-pyrrol-3-yl]hexyl]-N-[2-(trifluoromethyl)phenyl]piperazine-1-carboxamide] it is 62%.
As to `CC1=C(CCCCCCN2CCN(C(=O)Nc3cccc(F)c3)CC2)C(=O)N(c2ccc(C#N)c(C(F)(F)F)c2)C1=O` [Example 326, 4-[6-[1-[4-Cyano-3-(trifluoromethyl)phenyl]-2,5-dihydro-4-methyl-2,5-dioxo-1H-pyrrol-3-yl]hexyl]-N-(3-fluorophenyl)-piperazine-1-carboxamide], at androgen receptor (48 h), the remaining activity at 10 µM is 45%.
Same read-out and setting: in the case of `CC1=C(CCCCCCN2CCN(C(=O)Nc3ccc(F)cc3)CC2)C(=O)N(c2ccc(C#N)c(C(F)(F)F)c2)C1=O` [Example 330, 4-[6-[1-[4-Cyano-3-(trifluoromethyl)phenyl]-2,5-dihydro-4-methyl-2,5-dioxo-1H-pyrrol-3-yl]hexyl]-N-(4-fluorophenyl)-piperazine-1-carboxamide] it was 46%; in that of `CSc1cccc(NC(=O)N2CCN(CCCCCCC3=C(C)C(=O)N(c4ccc(C#N)c(C(F)(F)F)c4)C3=O)CC2)c1` [Example 340, 4-[6-[1-[4-Cyano-3-(trifluoromethyl)phenyl]-2,5-dihydro-4-methyl-2,5-dioxo-1H-pyrrol-3-yl]hexyl]-N-[3-(methylsulfanyl)phenyl]piperazine-1-carboxamide], 41%; in that of `CSc1ccc(NC(=O)N2CCN(CCCCCCC3=C(C)C(=O)N(c4ccc(C#N)c(C(F)(F)F)c4)C3=O)CC2)cc1` [Example 342, 4-[6-[1-[4-Cyano-3-(trifluoromethyl)phenyl]-2,5-dihydro-4-methyl-2,5-dioxo-1H-pyrrol-3-yl]hexyl]-N-[4-(methylsulfanyl)phenyl]piperazine-1-carboxamide], 67%.
Still for that read-out and setting: the figure for `CC1=C(CCCCCCN2CCN(C(=O)Nc3c(F)cccc3F)CC2)C(=O)N(c2ccc(C#N)c(C(F)(F)F)c2)C1=O` [Example 350, 4-[6-[1-[4-Cyano-3-(trifluoromethyl)phenyl]-2,5-dihydro-4-methyl-2,5-dioxo-1H-pyrrol-3-yl]hexyl]-N-(2,6-difluorophenyl)piperazine-1-carboxamide] is 61%.
`CC1=C(CCCCCCN2CCN(C(=O)Nc3c(Cl)cccc3Cl)CC2)C(=O)N(c2ccc(C#N)c(C(F)(F)F)c2)C1=O` [Example 351]: at androgen receptor (LNCaP cells, 10 μM test substance, 48 h, AR/actin as percentage of DMSO control), the “AR Content [%] At 10 μM” value is listed as 61%.
Consider `CC1=C(CCCCCCN2CCN(C(=O)Nc3cc(Cl)nc(Cl)c3)CC2)C(=O)N(c2ccc(C#N)c(C(F)(F)F)c2)C1=O` [Example 365, 4-[6-[1-[4-Cyano-3-(trifluoromethyl)phenyl]-2,5-dihydro-4-methyl-2,5-dioxo-1H-pyrrol-3-yl]hexyl]-N-(2,6-dichloropyridin-4-yl)piperazine-1-carboxamide], for which, at androgen receptor (48 h), the remaining activity at 1 µM was determined as 82% and the remaining activity at 10 µM stood at 36%.
As to `CC(CN1C(=S)N(c2ccc(C#N)c(C(F)(F)F)c2)C(=O)C1(C)C)N1CCN(C(=O)c2cccs2)CC1` (stereo not shown) [Example 524, 4-[4,4-Dimethyl-5-oxo-3-[2-[4-[(thien-2-yl)carbonyl]-piperazin-1-yl]propyl]-2-thioxoimidazolidin-1-yl]-2-(trifluoromethyl)benzonitrile], on androgen receptor (48 h), the remaining activity at 1 µM was 61%.
For `CC(C)C(=O)N1CCN(CCCCN2C(=S)N(c3ccc(C#N)c(C(F)(F)F)c3)C(=O)C2(C)C)CC1` [Example 546, 4-[4,4-Dimethyl-3-[4-[4-(2-methyl-1-oxopropyl)piperazin-1-yl]butyl]-5-oxo-2-thioxoimidazolidin-1-yl]-2-(trifluoromethyl)benzonitrile], at androgen receptor (48 h), the remaining activity at 1 µM stood at 68%. For the same compound, the “% Inhibition of the MSB Growth” value in the assay with seminal vesicles stood at 98%.
For `CC1(C)C(=O)N(c2ccc(C#N)c(C(F)(F)F)c2)C(=S)N1CCCCCN1CCN(S(=O)(=O)c2ccc(C#N)cc2)CC1` [Example 632, 4-[3-[5-[4-[(4-Cyanophenyl)sulfonyl]piperazin-1-yl]pentyl]-4,4-dimethyl-5-oxo-2-thioxoimidazolidin-1-yl]-2-(trifluoromethyl)benzonitrile], the remaining activity at 1 µM on androgen receptor (48 h) amounted to 75%.
On the same count and under the same terms, in the case of `CC(C)C(=O)N1CCN(CCCCCCN2C(=S)N(c3ccc(C#N)c(C(F)(F)F)c3)C(=O)C2(C)C)CC1` [Example 653, 4-[4,4-Dimethyl-3-[6-[4-(2-methyl-1-oxopropyl)piperazin-1-yl]hexyl]-5-oxo-2-thioxoimidazolidin-1-yl]-2-(trifluoromethyl)benzonitrile] it was 71%.
Turning to `CC(C)(O)C(=O)N1CCN(CCCCCCN2C(=S)N(c3ccc(C#N)c(C(F)(F)F)c3)C(=O)C2(C)C)CC1` [Example 656], in the assay with LNCaP cells, the IC50 is 26 nM and the “% Inhibition at 1 μM” value stood at 99%.
Take `CC1(C)C(=O)N(c2ccc(C#N)c(C(F)(F)F)c2)C(=S)N1CCCCCCN1CCN(C(=O)C(F)(F)F)CC1` [Example 670, 4-[4,4-Dimethyl-5-oxo-2-thioxo-3-[6-[4-(trifluoracetyl)piperazin-1-yl]hexyl]-imidazolidin-1-yl]-2-(trifluoromethyl)-benzonitrile]: in the assay with LNCaP cells, the IC50 worked out at 24 nM and the “% Inhibition at 1 μM” value worked out at 96%.
Consider `C[C@]1(O)CC[C@H]2[C@@H]3CCC4=CC(=O)CCC4=C3C=C[C@@]21C` [Example R-1881, 17β-hydroxy-17α-methylestra-4,9,11-trien-3-one, reference compound], for which the “AR Content [%]” value is reported as 250% on androgen receptor (LNCaP cells) and “stabilizes the AR protein” on androgen receptor (LNCaP cells, listed as R1881).
